Paper PMC6164231, “Evaluation of Chemical Strategies for Improving the Stability and Oral Toxicity of Insecticidal Peptides” (Biomedicines, 2018)

B1: AaIT: scorpion toxin AaIT (peptide, UniProt P01497 19-88, looked up)
Beta-insect excitatory toxin 1: KKNGYAVDSSGKAPECLLSNYCNNECTKVHYADKGYCCLLSCYCFGLNDDKKVLEISDTRKSYCDTTIIN

What was measured:
[1] = tested on: sheep blowflies (Lucilia cuprina); assay: Blowfly toxicity assay, injection; assay type: in vivo; details: injected into ventro-lateral thoracic region, lethality after 24 h; three tests, n = 10 flies per dose
Procedure: Injection assays using sheep blowflies (Lucilia cuprina) were performed as described. Briefly, peptides were dissolved in insect-saline and injected into the ventro-lateral thoracic region of blowflies (mass 16.5–27.0 mg). Thereafter, flies were individually housed in 2 mL tubes and lethality determined after 24 h.
(§1) Tests for oral toxicity in blowflies were performed as described. In short, peptides were dissolved in 5% sucrose and 3 μL of this solution was applied to the inside of a 2 mL tube containing a single fly (mass 16.8–25.3 mg). Flies were kept in the tube overnight without additional food or water until the sucrose solution was consumed. Thereafter, flies were transferred into 250 mL plastic containers and provided with a sugar cube and wet cotton wool. Each box housed 10 flies that received the same treatment. Oral toxicity was determined three days after the oral application. For both injection and oral toxicity assays, three tests were carried for each peptide, and for each test several doses of peptide (n = 10 flies per dose) were used along with appropriate controls (i.e., insect saline or 5% sucrose solution; n = 20–40). LD50 values were calculated as described previously.

[2] = Susceptibility to scrambling of Hv1a and diselenide analogs (buffer with or without GSH); assay type: physicochemical; details: for susceptibility to scrambling in the presence of GSH: 1 equivalent GSH; for Correctly Folded Toxin, In Buffer, pH 7.2: 45 μL of 250 μM peptide + 45 μL 0.1 M phosphate buffer pH 7.2, 24 h; for Correctly Folded Toxin, In Buffer, pH 7.2 / Correctly Folded Toxin, With 1 Equivalent GSH, pH 7.2: quenched with 1% TFA, analytical RP-HPLC; for Correctly Folded Toxin, With 1 Equivalent GSH, pH 7.2: 45 μL of 250 μM peptide + 45 μL 0.1 M phosphate buffer pH 7.2 containing 250 μM GSH, 24 h
Procedure: Peptide (45 μL of a 250 μM solution) was combined with either 45 μL of buffer (0.1 M phosphate buffer, pH 7.2) or 45 μL of buffer containing 250 μM GSH. After 24 h, the reaction was quenched with 1% TFA and the solution analysed using analytical RP-HPLC.

[3] = Midgut permeation assay (Ussing chamber); assay type: in vitro ADME, Manduca sexta; details: 10 µM in luminal fluid, separate occasion / different batch of M. sexta, comparison with 1,4-SeSe-Hv1a, 1 h at 30 °C, HPLC/ELISA/MALDI-TOF MS, mean ± S.E.M, n = 11–12 tissues
Procedure: Flat-sheet preparations of the anterior midgut of Manduca sexta were mounted in Ussing-type chambers as previously described [39]. The lumen to hemolymph flux was determined by applying various concentrations of peptide (0.1, 1, and 10 μM) to the luminal side of the tissue and taking aliquots of saline from the hemolymph side after 1 h incubation at 30 °C (n = 9–19 tissues per peptide and dose). […] To check for damage to gut tissues that would allow leakage of peptides through the tissues, 1% amaranth, which is not absorbed across gut epithelia, was added to the luminal side of the tissue. Samples were analysed using a combination of liquid chromatography, enzyme-linked immunosorbent assay (ELISA), and matrix-assisted laser desorption/ionisation time-of-flight mass spectrometry (MALDI-TOF MS) to quantify the amount of intact peptide present on the hemolymph side of the tissue [39].
Chromatography was performed using a Beckman System Gold chromatographic system (Beckman Coulter Ltd., High Wycombe, UK) consisting of a dual pump programmable solvent module 126 and System Gold UV detector module 166. […] Samples were eluted using a linear gradient of 10–60% ACN/0.1% TFA over 50 min at a flow rate of 0.2 mL/min, and elution monitored at 214 nm. […] Absorbance was converted to peptide concentration using standard curves. […]

[4] = tested on: sheep blowflies (Lucilia cuprina); assay: Blowfly toxicity assay, oral; assay type: in vivo; details: feeding to sheep blowflies; full dose-response curves not determined (Figure 4)
Procedure: as §1

[5] = tested on: Sarcophaga flesh flies; details: cited from earlier work
[6] = 0.1 M phosphate buffer pH 7.2, 24 h, RP-HPLC

Row | Molecule | LD50, injection into sheep blowflies [1] [pmol/g] | susceptibility to scrambling in the presence of GSH [2, 6] | Correctly Folded Toxin, In Buffer, pH 7.2 [2] [%] | Correctly Folded Toxin, With 1 Equivalent GSH, pH 7.2 [2] [%] | Lumen to Hemolymph Flux [3] [pmol/cm^2/h] | oral activity compared with native Hv1a [4] | stability in neutral media [2, 6] | ratio oral vs. injection LD50 [5]
1 | [C4U,C18U]-Hv1a [1,4-SeSe-Hv1a] | 407 ± 22 | only weakly prone to scrambling | 100 | 85 | 227 ± 14 | – | – | –
2 | [C11U,C22U]-Hv1a [2,5-SeSe-Hv1a] | 455 ± 35 | only weakly prone to scrambling | 100 | 82 | – | – | – | –
3 | [C17U,C36U]-Hv1a [3,6-SeSe-Hv1a] | 446 ± 12 | more susceptible to scrambling | 95 | 60 | – | significantly lower than native Hv1a | marginal instability | –
4 | B1 | – | – | – | – | – | – | – | 714
